From patent US11066629B2, “Lipid metabolism-promoting composition including isoxanthohumol” (SUNTORY HOLDINGS LIMITED, priority 2016, dated 2021)
Blank lines part the entries; values can stand above or below the molecule they belong to.

Tests used:
[1] = test system: high-fat diet model; experiment: Anti-obesity action in high-fat diet model (body weight, fat weight); format: in vivo, Mice (C57BL/6J)
Source text: The effect of isoxanthohumol on body weight increase and fat accumulation associated with high-fat diet was studied by the following procedure. In the table, “Regular diet” is control diet “D12450J” (product name, Research Diets); “60 kcal % High-fat diet” is very high-fat diet “D12492” (product name, Research Diets); and “Catechins” is a preparation “Polyphenon 70A” (product name, Mitsui Norin Co., Ltd.). Xanthohumol and isoxanthohumol were the standard samples (purity of 95% or higher) obtained in Preparation Example 1. The “Dose” in the table indicates the dose (mg) of the test substance per day per kg body weight. The main evaluation items were the body weight and the fat weight (fat around epididymis, fat around kidney/posterior abdominal wall, and fat around mesentery) of each individual (each item was measured on the last day: day 55 of administration). Mice (C57BL/6J, male, 7 weeks of age, CLEA Japan, Inc.) were purchased, and they were quarantine and acclimatized for one week. […] The selected animals were divided into groups (n=8 in each group) in the group structure shown in Table 1 by the stratified continuous randomization method based on body weight at the end of the acclimatization period. They were fed with free access to specific basic feed and water. The test substance was orally administered once per day for eight weeks. The test substance was administered until day 55, with the dosing start date defined as day 0. The duration was regarded as an administration period. During the administration period, the feed was completely replaced with a frequency of twice a week. The volume of a dosing solution was 10 mL/kg, and the amount of the test substance and the volume of the solution were calculated based on the latest body weight on the administration date. After the administration period, adipose tissue (fat around epididymis, fat around kidney/posterior abdominal wall, fat around mesentery) was extracted, and the weight was measured. Statistical analysis was performed as follows. Specifically, the average and standard error were calculated for body weight and fat weight in each group. Statistical processing was performed using Microsoft Office Excel 2003, and significant difference was tested between the regular diet group and the high-fat diet group and between the high-fat diet group and the groups excluding the regular diet group. As a statistical method, the homogeneity of variance was tested using the F-test. Student's T-test was used for homoscedasticity, and Aspin-Welch t-test was used for heteroscedasticity.

[2] = test system: Pgc-1α gene; experiment: Gene expression in brown adipose tissue by quantitative PCR, high-fat diet model; format: in vivo, mice (C57BL/6J); settings: isoxanthohumol 30 or 60 mg/kg/day oral, 14 days
Source text: (§1) Using the high-fat diet model, the effect of isoxanthohumol intake on expression of a gene related to fat burning was studied by the following procedure.
(§2) Thirty-two mice (C57BL/6J, male, 8 weeks of age, CLEA Japan, Inc.) were purchased and acclimatized for about one week. Then, the mice were divided into groups (n=8 in each group) in the group structure shown in Table 2 by the stratified continuous randomization method based on body weight. […] In Table 2, “Regular diet” is control diet “D12450J” (Research Diets), and “60 kcal % High-fat diet” is very high-fat diet “D12492” (Research Diets). Isoxanthohumol as the test substance was the standard sample (purity of 95% or higher) obtained in Preparation Example 1. […]
(§3) The test period was 14 days. […] The amount of the test substance and the volume of the solution were calculated based on the latest body weight on the administration date. […]
(§4) Using the extracted liver and brown adipose tissue, the effect of isoxanthohumol intake on expression of multiple genes related to lipid metabolism was studied. […] Then, cDNAs were synthesized using High-Capacity cDNA Reverse Transcription Kit (product name, Life Technologies Corporation), and the expression levels of genes shown in Table 3 were examined by quantitative PCR (TaqMan probe method) using Fast Universal PCR Master Mix (product name, Life Technologies Corporation). […]

[3] = test system: Ucp1 gene; experiment: as above; format: in vivo, mice (C57BL/6J); settings: isoxanthohumol 30 or 60 mg/kg/day oral, 14 days
Source text: as §1, §2, §3, §4

[4] = test system: high-fat diet model; experiment: Measurement of triglyceride (TG) content in liver; format: in vivo, Mice (C57BL/6J); settings: livers of Example 1
Procedure: The neutral fat content (also referred to as “triglyceride content” or “TG content”) in the liver was measured using the liver extracted in Example 1. Specifically, the extracted liver was cut to obtain a section of about 30 mg, and 1 mL of a mixed solution containing methanol (Nacalai Tesque, Inc.) and chloroform (Nacalai Tesque, Inc.) at a ratio of 1:1 was added to the section which was then crushed with a bead beater, whereby triglyceride in the liver was extracted. After centrifugation (12000 g, for 15 minutes), the supernatant was collected, the solution was distilled off, and isopropanol was added for re-dissolution, whereby a sample was prepared. The triglyceride content in the sample was measured using Triglyceride E Test Wako (Wako), and the triglyceride content (mg/g) in the liver per unit weight was calculated. The data was presented as average f standard error. Student's t-test was used as a statistical test, and a difference with p<0.05 was considered significant.

[5] = test system: apoptosis inhibitor of macrophage (AIM); settings: mouse macrophage-derived cells (J774.1) cultured with isoxanthohumol; cited from earlier work
[6] = Effect of intake on fat burning, respiratory quotient (Oxymax respirometer); format: in vivo, mice (C57BL/6J); settings: isoxanthohumol 0.2% in feed, 7 days, vs control group
Source text: The effect of isoxanthohumol intake on fat burning was studied by the following procedure using a respirometer “Oxymax” (Bio Research Center Co., Ltd.).
As for the group structure, there were two groups: a control group and an isoxanthohumol 0.2% group. Eight mice (C57BL/6J, male, 14 weeks of age, CLFA Japan, Inc.) were purchased and acclimatized for about one week. Then, the mice were divided into the control group and the isoxanthohumol 0.2% group (n=4 in each group) by the stratified continuous randomization method based on body weight. Control diet “D12450J” (Research Diets) was used as basic feed. During the test period, the control group was fed with the basic feed, and the isoxanthohumol 0.2% group was fed with mixed feed of the basic feed and the test substance (isoxanthohumol obtained in Preparation Example 1) at a weight ratio of 0.2% relative to the basic feed.
The test period (a period in which the test substance was ingested, and breath analysis was performed) was seven days. […] Using Oxymax (Bio Research Center Co., Ltd.), the oxygen consumption (VO2) and the carbon dioxide output (VCO2) of each individual were measured over time and recorded.
The respiratory quotient (RQ) was calculated using the following formula 1 from the oxygen consumption (VO2) and the carbon dioxide output (VCO2) at each point. […]

[7] = Solubility of isoxanthohumol in various solvents under ice cooling conditions (Experiment B); format: physicochemical; settings: for solubility relative to aqueous solution without γ-cyclodextrin: ice cooling
Source text: (§5) The solubility of each of the standard samples of xanthohumol and isoxanthohumol in water (Experiment A) and various solvents (Experiment B) under ice cooling conditions was studied to evaluate the suitability for beverage applications. Xanthohumol and isoxanthohumol were the standard samples obtained in Preparation Example 1 (purity of 95% or higher).
Distilled water, a hop extract, and 0.2% (w/v) or 1.0% (w/v) aqueous solution of β-cyclodextrin or γ-cyclodextrin (both Nacalai Tesque, Inc.) were prepared as solvents to study the solubility of isoxanthohumol under ice cooling conditions. As for the hop extract, hops (Saaz) that had been crushed into pellets were extracted with distilled water in an amount 10 times the weight of the pellets by shaking at room temperature for about 60 minutes, and the filtrate obtained by suction filtration was used for the test. The isoxanthohumol concentration in the hop extract was less than 0.5 ppm. A sample containing a solvent and isoxanthohumol having a weight corresponding to 0.2% (w/v) of the solvent was prepared for each of the above solvents, and the standard sample was allowed to dissolve in water as much as possible by stirring in a vortex mixer for 10 seconds or longer and shaking for about 60 minutes under ice cooling conditions. Centrifugation and quantitative analysis were performed as in Experiment A to evaluate the solubility of isoxanthohumol in each solvent.

[8] = heating; isoxanthohumol at 100° C.; cited from earlier work
[9] = Solubility in water under ice cooling conditions (Experiment A); format: physicochemical; settings: distilled water, ppm on w/v basis
Source text: as §5
A sample containing distilled water and xanthohumol or isoxanthohumol having a weight corresponding to 0.2% (w/v) of the distilled water was prepared, and each standard sample was allowed to dissolve in distilled water as much as possible by stirring in a vortex mixer for 10 seconds or longer and shaking for about 60 minutes under ice cooling conditions. Further, centrifugation was performed (12,000 rpm, 4° C., for 5 minutes), and the supernatant was collected. This procedure was repeated three times. The finally obtained supernatant was used as a xanthohumol saturated aqueous solution or an isoxanthohumol saturated aqueous solution. The saturated aqueous solution was 100-fold diluted with a 25% aqueous ethanol solution to obtain a sample for analysis. The sample was subjected to quantitative analysis using an LC-MS/MS system (TSQ Quantiva, Thermo Fisher Scientific Inc.) to evaluate the solubility in water. […] Note that ppm is ppm on w/v basis unless otherwise specified. […]

[10] = test system: Acox1 gene; experiment: Gene expression in liver by quantitative PCR, high-fat diet model; format: in vivo, mice (C57BL/6J); settings: isoxanthohumol 30 or 60 mg/kg/day oral, 14 days
Source text: as §1, §2, §3, §4

[11] = test system: Cpt1a gene; experiment: as above; format: in vivo, mice (C57BL/6J); settings: isoxanthohumol 30 or 60 mg/kg/day oral, 14 days
Source text: as §1, §2, §3, §4

[12] = test system: mouse preadipocyte (3T3-L1); settings: 3T3-L1, concentration without cytotoxicity; cited from earlier work
[13] = test system: type II diabetes mouse model; settings: feed containing xanthohumol at 1%; cited from earlier work
[14] = test system: high-fat diet mouse model; settings: repeated dose 30 mg/kg/day; cited from earlier work
[15] = 60 mg/kg/day oral, day 55, compared to high-fat diet group
[16] = 180 mg/kg/day oral, day 55, compared to high-fat diet group

solubility relative to aqueous solution without γ-cyclodextrin ([7]; 0.2% (w/v) γ-cyclodextrin): about 5 times
solubility relative to aqueous solution without γ-cyclodextrin ([7]; 1.0% (w/v) γ-cyclodextrin): about 18 times
Solubility (ice cooling conditions) ([7]; solvent: 0.2% β-Cyclodextrin): 18.4 ppm
Solubility (ice cooling conditions) ([7]; solvent: 0.2% γ-Cyclodextrin): 33.6 ppm
Solubility (ice cooling conditions) ([7]; solvent: 1.0% β-Cyclodextrin): 52.0 ppm
Solubility (ice cooling conditions) ([7]; solvent: 1.0% γ-Cyclodextrin): 115.5 ppm
Solubility (ice cooling conditions) ([7]; solvent: Distilled water): 6.3 ppm
Solubility (ice cooling conditions) ([7]; solvent: Hop extract): 13.7 ppm
Solubility in water (ice cooling conditions) [9]: 6.3 ppm
SMILES: COc1cc(O)c(CC=C(C)C)c2c1C(=O)CC(c1ccc(O)cc1)O2 (stereo not drawn) [isoxanthohumol]
fat weight around epididymis [1, 15]: significantly low
fat weight around mesentery [1, 15]: significantly low
fat weight around epididymis [1, 16]: significantly low
fat weight around kidney/posterior abdominal wall [1, 16]: significantly low
fat weight around mesentery [1, 16]: significantly low
average body weight compared with xanthohumol medium-dose group ([1]; isoxanthohumol 60 mg/kg vs xanthohumol 60 mg/kg, day 55): equivalent to that of the xanthohumol medium-dose group
average body weight compared with catechins group ([1]; isoxanthohumol 180 mg/kg vs catechins 300 mg/kg, day 55): better result
body weight ([1]; isoxanthohumol high-dose 180 mg/kg/day oral, day 55, compared to high-fat diet group): significantly low
body weight ([1]; isoxanthohumol medium-dose 60 mg/kg/day oral, day 55, compared to high-fat diet group): tended to have a low body weight
Pgc-1α gene expression in the brown adipose tissue [2]: significant increase
expression level of Ucp1 gene in brown adipose tissue [3]: increase in expression level
neutral fat (triglyceride) content in the liver ([4]; isoxanthohumol-administered group vs high-fat diet group): significantly lower
action on neutral fat content in the liver compared with xanthohumol [4]: stronger than that of xanthohumol
expression of lipolysis-promoting factor AIM [5]: enhanced expression
respiratory quotient (RQ) [6]: lower
thermal stability [8]: stable even at a high temperature of 100 °C
gene expression level of Acox1 gene in the liver [10]: significant increase
gene expression level of Cpt1a gene in the liver [11]: significant increase
differentiation of the cells into adipocytes [12]: did not suppress differentiation

Solubility in water (ice cooling conditions) [9]: Less than 0.5 ppm
SMILES: COc1cc(O)c(CC=C(C)C)c(O)c1C(=O)/C=C/c1ccc(O)cc1 [xanthohumol]
body weight gain [13]: tendency of suppression of body weight gain
weight of fat around kidney or the like [13]: decrease
body weight increase [14]: suppression of body weight increase
thermal stability [8]: thermally unstable
